The subject of the assay is L1210 leukemia ip in BDF1 mice, survival T/C. Nature of the assay: NCI In Vivo Anticancer Drug Screen. Data for tumor model L1210 Leukemia (intraperitoneal) in B6D2F1 (BDF1) mice. The settings on record: endpoint: mean survival time, higher = longer survival. The gist of the method: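 Tumor was transplanted into mice, which were then dosed with test compound or vehicle alone. Survival was recorded for each group, and the treated figure was expressed relative to the control figure.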

Where [1] appears, read: dose: 100.0 mg/kg/injection, schedule: Q01DX001 (ip), vehicle: Klucel (hydroxypropylcellulose) (HPC).
Setting [2] is: dose: 200.0 mg/kg/injection, schedule: Q01DX001 (ip), vehicle: Klucel (hydroxypropylcellulose) (HPC).
Where [3] appears, read: dose: 400.0 mg/kg/injection, schedule: Q01DX001 (ip), vehicle: Klucel (hydroxypropylcellulose) (HPC).
Setting [4] is: dose: 100.0 mg/kg/injection, schedule: Q01DX009 (ip), vehicle: Klucel (hydroxypropylcellulose) (HPC).
[5] abbreviates: dose: 100.0 mg/kg/injection, schedule: Q01DX001 (ip), vehicle: saline.
The mark [6] stands for this setting: dose: 200.0 mg/kg/injection, schedule: Q01DX001 (ip), vehicle: saline.
Where [7] appears, read: dose: 400.0 mg/kg/injection, schedule: Q01DX001 (ip), vehicle: saline.
Setting [8] is: dose: 200.0 mg/kg/injection, schedule: Q01DX009 (ip), vehicle: Klucel (hydroxypropylcellulose) (HPC).
The mark [9] stands for this setting: dose: 50.0 mg/kg/injection, schedule: Q01DX001 (ip), vehicle: saline.

The values below come from PubChem BioAssay AID248 (DTP/NCI, 2004).

Values joined by “and” are separate entries in the source; they are usually repeats but may differ in a detail not shown here. Identical values can stand only once. Inconclusive results and toxic doses are left out.

With `O=C(OCc1ccccc1CN1CCCC1)c1ccc(Cl)cc1`, the T/C reads like this: (dose: 100.0 mg/kg/injection, schedule: Q04DX002 (ip), vehicle: Klucel (hydroxypropylcellulose) (HPC)) 111 % of control; (dose: 200.0 mg/kg/injection, schedule: Q04DX002 (ip), vehicle: Klucel (hydroxypropylcellulose) (HPC)) 96 % of control; (dose: 400.0 mg/kg/injection, schedule: Q04DX002 (ip), vehicle: Klucel (hydroxypropylcellulose) (HPC)) 111 % of control.
Consider `CNC(=O)Nc1ccc(Cl)cc1`, for which the T/C was 107 % of control under setting [1], 105 % of control under setting [2] and 107 % of control under setting [3].
On to `Cc1c[nH]c(=O)c[n+]1[O-]`, for which the T/C runs as follows: (dose: 100.0 mg/kg/injection, schedule: Q04DX003 (ip), vehicle: saline) 97 % of control; (dose: 200.0 mg/kg/injection, schedule: Q04DX003 (ip), vehicle: saline) 100 % of control; (dose: 400.0 mg/kg/injection, schedule: Q04DX003 (ip), vehicle: saline) 100 % of control.
Turning to `N#CS.[Tl]`, the T/C (dose: 9.5 mg/kg/injection, schedule: Q01DX001 (ip), vehicle: carboxymethylcellulose (CMC)) was 92 % of control; the T/C (dose: 19.0 mg/kg/injection, schedule: Q01DX001 (ip), vehicle: carboxymethylcellulose (CMC)) is 103 % of control; the T/C (dose: 38.0 mg/kg/injection, schedule: Q01DX001 (ip), vehicle: carboxymethylcellulose (CMC)) was 105 % of control.
On to `Cc1cc(C2=CCCCC2)c2ccccc2c1C`, for which the T/C was 95 % of control under setting [1], 103 % of control under setting [2] and 95 % of control under setting [3].
As for `CCOC(=O)C1(c2ccccc2)CCN(CC(O)COc2cc(C)ccc2C(C)C)CC1` (centres undefined), the T/C (dose: 25.0 mg/kg/injection, schedule: Q01DX009 (ip), vehicle: Klucel (hydroxypropylcellulose) (HPC)) is 91 % of control; the T/C (dose: 50.0 mg/kg/injection, schedule: Q01DX009 (ip), vehicle: Klucel (hydroxypropylcellulose) (HPC)) was 100 % of control; the T/C under setting [4] was 93 % of control and 97 % of control.
With `O=C(O)C(O)C(=O)O.[NH2-].[NH2-].[Pt+2]`, the T/C runs as follows: (dose: 1.0 mg/kg/injection, schedule: Q01DX001 (ip), vehicle: other) 94 % of control; (dose: 2.0 mg/kg/injection, schedule: Q01DX001 (ip), vehicle: other) 95 % of control; (dose: 2.0 mg/kg/injection, schedule: Q01DX009 (ip), vehicle: other) 101 % of control; (dose: 4.0 mg/kg/injection, schedule: Q01DX001 (ip), vehicle: other) 98 % of control; (dose: 4.0 mg/kg/injection, schedule: Q01DX009 (ip), vehicle: other) 101 % of control; (dose: 8.0 mg/kg/injection, schedule: Q01DX001 (ip), vehicle: other) 98 % of control. For the same compound, the T/C by setting is: (dose: 8.0 mg/kg/injection, schedule: Q01DX009 (ip), vehicle: other) 101 % of control; (dose: 16.0 mg/kg/injection, schedule: Q01DX001 (ip), vehicle: other) 101 % of control; (dose: 25.0 mg/kg/injection, schedule: Q04DX003 (ip), vehicle: saline) 112 % of control; (dose: 32.0 mg/kg/injection, schedule: Q01DX001 (ip), vehicle: other) 109 % of control; (dose: 32.0 mg/kg/injection, schedule: Q01DX009 (ip), vehicle: other) 187 % of control; (dose: 40.0 mg/kg/injection, schedule: Q01DX001 (ip), vehicle: other) 122 % of control. Moreover, the T/C was 158 % of control (dose: 60.0 mg/kg/injection, schedule: Q01DX001 (ip), vehicle: other); 168 % of control (dose: 80.0 mg/kg/injection, schedule: Q01DX001 (ip), vehicle: other); 114 % of control (dose: 100.0 mg/kg/injection, schedule: Q01DX001 (ip), vehicle: other); 121 % of control (dose: 128.0 mg/kg/injection, schedule: Q01DX001 (ip), vehicle: other).
Take `CC(CCN)(CCN)[N+](=O)[O-]`: the T/C under setting [5] is 98 % of control, the T/C under setting [6] was 92 % of control and the T/C under setting [7] is 93 % of control.
As to `CC(F)(F)C(F)(F)C(=O)CC(=O)C(F)(F)F.CC(F)(F)C(F)(F)C(=O)CC(=O)C(F)(F)F.[Cu]`, the T/C reads like this: (dose: 6.25 mg/kg/injection, schedule: Q01DX009 (ip), vehicle: saline with Tween-80) 88 % of control; (dose: 6.25 mg/kg/injection, schedule: Q04DX003 (ip), vehicle: saline with Tween-80) 91 % of control; (dose: 12.5 mg/kg/injection, schedule: Q01DX009 (ip), vehicle: saline with Tween-80) 101 % of control; (dose: 12.5 mg/kg/injection, schedule: Q04DX003 (ip), vehicle: saline with Tween-80) 95 % of control; (dose: 25.0 mg/kg/injection, schedule: Q01DX009 (ip), vehicle: saline with Tween-80) 90 % of control; (dose: 25.0 mg/kg/injection, schedule: Q04DX003 (ip), vehicle: saline with Tween-80) 95 % of control.
On to `CC(=O)Oc1cc(C)c(OC(C)=O)c2ccccc12`, for which the T/C reads like this: under setting [4], 96 % of control; (dose: 100.0 mg/kg/injection, schedule: Q04DX003 (ip), vehicle: Klucel (hydroxypropylcellulose) (HPC)) 96 % of control; under setting [8], 93 % of control; (dose: 200.0 mg/kg/injection, schedule: Q04DX003 (ip), vehicle: Klucel (hydroxypropylcellulose) (HPC)) 103 % of control; (dose: 400.0 mg/kg/injection, schedule: Q04DX003 (ip), vehicle: Klucel (hydroxypropylcellulose) (HPC)) 96 % of control.
With `CC(=O)SCCCON1C(=O)c2ccccc2C1=O`, the T/C under setting [9] is 100 % of control, the T/C under setting [5] is 96 % of control, the T/C under setting [6] was 102 % of control and the T/C under setting [7] is 102 % of control.
As to `CCC(=O)N(C)C(=NC)c1ccc(NC(=O)c2ccc(C(=O)Nc3ccc(C(=NC)N(C)C(=O)CC)cc3)cc2)cc1`, the T/C was 90 % of control (dose: 75.0 mg/kg/injection, schedule: Q01DX015 (ip), vehicle: carboxymethylcellulose (CMC)); 91 % of control (dose: 100.0 mg/kg/injection, schedule: Q01DX015 (ip), vehicle: carboxymethylcellulose (CMC)); 90 % of control (dose: 150.0 mg/kg/injection, schedule: Q01DX015 (ip), vehicle: carboxymethylcellulose (CMC)); 97 % of control (dose: 200.0 mg/kg/injection, schedule: Q01DX015 (ip), vehicle: carboxymethylcellulose (CMC)).
Turning to `NCCCCC(N)C(=O)NCCCNCCCCNCCCNC(=O)C(N)CCCCN` (centres undefined), the T/C is 104 % of control (dose: 3.0 mg/kg/injection, schedule: Q01DX Z (ip), vehicle: saline); 94 % of control (dose: 10.0 mg/kg/injection, schedule: Q01DX Z (ip), vehicle: saline); 93 % of control (dose: 30.0 mg/kg/injection, schedule: Q01DX Z (ip), vehicle: saline); 106 % of control (dose: 100.0 mg/kg/injection, schedule: Q01DX Z (ip), vehicle: saline).
With `Oc1ccc2c(c1)Cc1c-2nc2ccccc2c1Cl`, the T/C by setting is: under setting [9], 97 % of control; under setting [5], 98 % of control; under setting [6], 97 % of control; under setting [7], 93 % of control.
Consider `C/C(N)=C\C#N`, for which, under setting [9], the T/C was 91 % of control.
`O=C1CC(Sc2ccccc2)C(=O)N1c1ccccc1` (centres undefined): the T/C was 104 % of control under setting [4]; 100 % of control under setting [8]; 107 % of control (dose: 400.0 mg/kg/injection, schedule: Q01DX009 (ip), vehicle: Klucel (hydroxypropylcellulose) (HPC)).
As to `CC(=O)Oc1c(I)cc(I)cc1C(=O)Nc1ccc(Cl)cc1`, the T/C was 94 % of control (dose: 50.0 mg/kg/injection, schedule: Q01DX009 (ip), vehicle: saline with Tween-80) and 87 % of control (dose: 100.0 mg/kg/injection, schedule: Q01DX009 (ip), vehicle: saline with Tween-80).
For `O=C(CCCC(O)(C1CC1)C1CC1)C1CC1`, the T/C is 106 % of control (dose: 100.0 mg/kg/injection, schedule: Q01DX009 (ip), vehicle: acetone); 112 % of control (dose: 100.0 mg/kg/injection, schedule: Q04DX003 (ip), vehicle: acetone); 106 % of control (dose: 200.0 mg/kg/injection, schedule: Q01DX009 (ip), vehicle: acetone); 101 % of control (dose: 200.0 mg/kg/injection, schedule: Q04DX003 (ip), vehicle: acetone); 109 % of control (dose: 400.0 mg/kg/injection, schedule: Q01DX009 (ip), vehicle: acetone); 101 % of control (dose: 400.0 mg/kg/injection, schedule: Q04DX003 (ip), vehicle: acetone).
Turning to `O=C1c2c(O)cccc2C(C2OC(CO)C(O)C(O)C2O)c2cc(CO)cc(O)c21` (centres undefined), the T/C by setting is: under setting [5], 98 % of control; under setting [6], 98 % of control; under setting [7], 104 % of control.
